Peptide text beside a SMILES is read from it.
How the values were obtained:
GTPase KRas [1] = molecular target: GTPase KRas (Homo sapiens, UniProt P01116, G12C); assay: Inhibition of biotinylated K-Ras G12C mutant (unknown origin) assessed as reduction in SOS1 (564 to 1049 residues)-mediated BODIPY-GDP-GTP exchange after 1 hr by TR-FRET assay
Homo sapiens [2] = species on record: Homo sapiens; assay: Selectivity ratio of IC50 for inhibition of biotinylated K-Ras G12C mutant (unknown origin) to IC50 for inhibition of biotinylated K-Ras G12D mutant (unknown origin)
GTPase KRas [3] = molecular target: T1, GTPase KRas (Homo sapiens, UniProt P01116, G12D); assay: Inhibition of biotinylated K-Ras G12D mutant (unknown origin) assessed as reduction in SOS1 (564 to 1049 residues)-mediated BODIPY-GDP-GTP exchange after 1 hr in presence of DTT by TR-FRET assay
Homo sapiens [4] = species on record: Homo sapiens; assay: Selectivity ratio of IC50 for inhibition of biotinylated wild type K-Ras (unknown origin) to IC50 for inhibition of biotinylated K-Ras G12D mutant (unknown origin)
GTPase KRas [5] = molecular target: T1, GTPase KRas; assay: Inhibition of biotinylated K-Ras G12D mutant (unknown origin) assessed as reduction in SOS1 (564 to 1049 residues)-mediated BODIPY-GDP-GTP exchange after 1 hr by TR-FRET assay
GTPase KRas [6] = molecular target: GTPase KRas (Homo sapiens, UniProt P01116); assay: Inhibition of biotinylated wild-type K-Ras (unknown origin) assessed as inhibition of human SOS1 (564 to 1049 residues)-mediated BODIPY-GDP-GTP exchange after 1 hr by TR-FRET assay

## CC[C@H](C)[C@@H]1NC(=O)[C@H](Cc2ccc(O)cc2)NC(=O)[C@H](CC(C)C)NC(=O)[C@@H]2CCCN2C(=O)[C@@H](NC(=O)[C@H](CCCNC(=N)N)NC(=O)[C@H](CCCNC(=N)N)NC(=O)[C@H](CCCNC(=N)N)NC(=O)[C@H](CCCNC(=N)N)NC(C)=O)CSSC[C@@H](C(=O)N[C@@H](CCCNC(=N)N)C(=O)N[C@@H](CCCNC(=N)N)C(=O)N[C@@H](CCCNC(=N)N)C(=O)N[C@@H](CCCNC(=N)N)C(N)=O)NC(=O)[C@H](C(C)C)NC(=O)[C@@H]2CCCN2C(=O)[C@H](C)NC(=O)[C@H](Cc2ccc(O)cc2)NC(=O)[C@H](CO)NC1=O (HELM PEPTIDE1{[ac].R.R.R.R.C.P.L.Y.I.S.Y.A.P.V.C.R.R.R.R.[am]}$PEPTIDE1,PEPTIDE1,6:R3-16:R3$$$V2.0)
GTPase KRas [1]
  IC50: 975 nM
Homo sapiens [2]
  Ratio IC50: 0.06
GTPase KRas [3]
  IC50: > 100000 nM
Homo sapiens [4]
  Ratio IC50: 4
GTPase KRas [5]
  IC50: 15400 nM
GTPase KRas [6]
  IC50: 65000 nM

## CC[C@H](C)[C@@H]1NC(=O)[C@H](Cc2ccc(O)cc2)NC(=O)[C@H](CC(C)C)NC(=O)[C@@H]2CCCN2C(=O)[C@@H](NC(C)=O)CSSC[C@@H](C(N)=O)NC(=O)[C@H](C(C)C)NC(=O)[C@@H]2CCCN2C(=O)[C@H](CC(=O)O)NC(=O)[C@H](Cc2ccc(O)cc2)NC(=O)[C@H](CO)NC1=O (HELM PEPTIDE1{[ac].C.P.L.Y.I.S.Y.D.P.V.C.[am]}$PEPTIDE1,PEPTIDE1,2:R3-12:R3$$$V2.0)
GTPase KRas [1]
  IC50: 82 nM
Homo sapiens [2]
  Ratio IC50: 7
GTPase KRas [3]
  IC50: 9770 nM
Homo sapiens [4]
  Ratio IC50: 13
GTPase KRas [5]
  IC50: 11 nM
GTPase KRas [6]
  IC50: 142 nM

## CC[C@H](C)[C@@H]1NC(=O)[C@H](C)NC(=O)[C@H](CC(C)C)NC(=O)[C@@H]2CCCN2C(=O)[C@@H](NC(=O)[C@H](CCCNC(=N)N)NC(=O)[C@H](CCCNC(=N)N)NC(=O)[C@H](CCCNC(=N)N)NC(=O)[C@H](CCCNC(=N)N)NC(C)=O)CSSC[C@@H](C(=O)N[C@@H](CCCNC(=N)N)C(=O)N[C@@H](CCCNC(=N)N)C(=O)N[C@@H](CCCNC(=N)N)C(=O)N[C@@H](CCCNC(=N)N)C(N)=O)NC(=O)[C@H](C(C)C)NC(=O)[C@@H]2CCCN2C(=O)[C@H](CC(=O)O)NC(=O)[C@H](Cc2ccc(O)cc2)NC(=O)[C@H](CO)NC1=O (HELM PEPTIDE1{[ac].R.R.R.R.C.P.L.A.I.S.Y.D.P.V.C.R.R.R.R.[am]}$PEPTIDE1,PEPTIDE1,6:R3-16:R3$$$V2.0)
GTPase KRas [1]
  IC50: 53 nM
Homo sapiens [2]
  Ratio IC50: 1
GTPase KRas [3]
  IC50: 192 nM
Homo sapiens [4]
  Ratio IC50: 34
GTPase KRas [5]
  IC50: 50 nM
GTPase KRas [6]
  IC50: 1730 nM

## CC[C@H](C)[C@@H]1NC(=O)[C@H](Cc2ccc(O)cc2)NC(=O)[C@H](CC(C)C)NC(=O)[C@H](C)NC(=O)[C@@H](NC(=O)[C@H](CCCNC(=N)N)NC(=O)[C@H](CCCNC(=N)N)NC(=O)[C@H](CCCNC(=N)N)NC(=O)[C@H](CCCNC(=N)N)NC(C)=O)CSSC[C@@H](C(=O)N[C@@H](CCCNC(=N)N)C(=O)N[C@@H](CCCNC(=N)N)C(=O)N[C@@H](CCCNC(=N)N)C(=O)N[C@@H](CCCNC(=N)N)C(N)=O)NC(=O)[C@H](C(C)C)NC(=O)[C@@H]2CCCN2C(=O)[C@H](CC(=O)O)NC(=O)[C@H](Cc2ccc(O)cc2)NC(=O)[C@H](CO)NC1=O (HELM PEPTIDE1{[ac].R.R.R.R.C.A.L.Y.I.S.Y.D.P.V.C.R.R.R.R.[am]}$PEPTIDE1,PEPTIDE1,6:R3-16:R3$$$V2.0)
GTPase KRas [1]
  IC50: 113 nM
Homo sapiens [2]
  Ratio IC50: 6
GTPase KRas [3]
  IC50: 172 nM
Homo sapiens [4]
  Ratio IC50: 41
GTPase KRas [5]
  IC50: 19 nM
GTPase KRas [6]
  IC50: 763 nM

## CC[C@H](C)[C@@H]1NC(=O)[C@H](Cc2ccc(O)cc2)NC(=O)[C@H](C)NC(=O)[C@@H]2CCCN2C(=O)[C@@H](NC(=O)[C@H](CCCNC(=N)N)NC(=O)[C@H](CCCNC(=N)N)NC(=O)[C@H](CCCNC(=N)N)NC(=O)[C@H](CCCNC(=N)N)NC(C)=O)CSSC[C@@H](C(=O)N[C@@H](CCCNC(=N)N)C(=O)N[C@@H](CCCNC(=N)N)C(=O)N[C@@H](CCCNC(=N)N)C(=O)N[C@@H](CCCNC(=N)N)C(N)=O)NC(=O)[C@H](C(C)C)NC(=O)[C@@H]2CCCN2C(=O)[C@H](CC(=O)O)NC(=O)[C@H](Cc2ccc(O)cc2)NC(=O)[C@H](CO)NC1=O (HELM PEPTIDE1{[ac].R.R.R.R.C.P.A.Y.I.S.Y.D.P.V.C.R.R.R.R.[am]}$PEPTIDE1,PEPTIDE1,6:R3-16:R3$$$V2.0)
GTPase KRas [1]
  IC50: 1630 nM
Homo sapiens [2]
  Ratio IC50: 1
GTPase KRas [3]
  IC50: > 100000 nM
Homo sapiens [4]
  Ratio IC50: > 56
GTPase KRas [5]
  IC50: 1790 nM
GTPase KRas [6]
  IC50: > 100000 nM

## CC[C@H](C)[C@@H]1NC(=O)[C@H](Cc2ccc(O)cc2)NC(=O)[C@H](CC(C)C)NC(=O)[C@@H]2CCCN2C(=O)[C@@H](NC(=O)[C@H](CCCNC(=N)N)NC(=O)[C@H](CCCNC(=N)N)NC(=O)[C@H](CCCNC(=N)N)NC(=O)[C@H](CCCNC(=N)N)NC(C)=O)CSSC[C@@H](C(=O)N[C@@H](CCCNC(=N)N)C(=O)N[C@@H](CCCNC(=N)N)C(=O)N[C@@H](CCCNC(=N)N)C(=O)N[C@@H](CCCNC(=N)N)C(N)=O)NC(=O)[C@H](C)NC(=O)[C@@H]2CCCN2C(=O)[C@H](CC(=O)O)NC(=O)[C@H](Cc2ccc(O)cc2)NC(=O)[C@H](CO)NC1=O (HELM PEPTIDE1{[ac].R.R.R.R.C.P.L.Y.I.S.Y.D.P.A.C.R.R.R.R.[am]}$PEPTIDE1,PEPTIDE1,6:R3-16:R3$$$V2.0)
GTPase KRas [1]
  IC50: 44 nM
Homo sapiens [2]
  Ratio IC50: 6
GTPase KRas [3]
  IC50: 35.8 nM
Homo sapiens [4]
  Ratio IC50: 14
GTPase KRas [5]
  IC50: 7.5 nM
GTPase KRas [6]
  IC50: 105 nM

## CC[C@H](C)[C@@H]1NC(=O)[C@H](Cc2ccc(O)cc2)NC(=O)[C@H](CC(C)C)NC(=O)[C@@H]2CCCN2C(=O)[C@@H](NC(=O)[C@H](CCCNC(=N)N)NC(=O)[C@H](CCCNC(=N)N)NC(=O)[C@H](CCCNC(=N)N)NC(=O)[C@H](CCCNC(=N)N)NC(C)=O)CSSC[C@@H](C(=O)N[C@@H](CCCNC(=N)N)C(=O)N[C@@H](CCCNC(=N)N)C(=O)N[C@@H](CCCNC(=N)N)C(=O)N[C@@H](CCCNC(=N)N)C(N)=O)NC(=O)[C@H](C(C)C)NC(=O)[C@@H]2CCCN2C(=O)[C@H](CC(=O)O)NC(=O)[C@H](C)NC(=O)[C@H](CO)NC1=O (HELM PEPTIDE1{[ac].R.R.R.R.C.P.L.Y.I.S.A.D.P.V.C.R.R.R.R.[am]}$PEPTIDE1,PEPTIDE1,6:R3-16:R3$$$V2.0)
GTPase KRas [1]
  IC50: 358 nM
Homo sapiens [2]
  Ratio IC50: 6
GTPase KRas [3]
  IC50: 244 nM
Homo sapiens [4]
  Ratio IC50: 65
GTPase KRas [5]
  IC50: 64 nM
GTPase KRas [6]
  IC50: 4190 nM

## CC(=O)N[C@@H](CCCNC(=N)N)C(=O)N[C@@H](CCCNC(=N)N)C(=O)N[C@@H](CCCNC(=N)N)C(=O)N[C@@H](CCCNC(=N)N)C(=O)N[C@H]1CSSC[C@@H](C(=O)N[C@@H](CCCNC(=N)N)C(=O)N[C@@H](CCCNC(=N)N)C(=O)N[C@@H](CCCNC(=N)N)C(=O)N[C@@H](CCCNC(=N)N)C(N)=O)NC(=O)[C@H](C(C)C)NC(=O)[C@@H]2CCCN2C(=O)[C@H](CC(=O)O)NC(=O)[C@H](Cc2ccc(O)cc2)NC(=O)[C@H](CO)NC(=O)[C@H](C)NC(=O)[C@H](Cc2ccc(O)cc2)NC(=O)[C@H](CC(C)C)NC(=O)[C@@H]2CCCN2C1=O (HELM PEPTIDE1{[ac].R.R.R.R.C.P.L.Y.A.S.Y.D.P.V.C.R.R.R.R.[am]}$PEPTIDE1,PEPTIDE1,6:R3-16:R3$$$V2.0)
GTPase KRas [1]
  IC50: 5190 nM
Homo sapiens [2]
  Ratio IC50: 0.3
GTPase KRas [3]
  IC50: 73500 nM
Homo sapiens [4]
  Ratio IC50: 2
GTPase KRas [5]
  IC50: 20600 nM
GTPase KRas [6]
  IC50: 39300 nM

## CC[C@H](C)[C@@H]1NC(=O)[C@H](Cc2ccc(O)cc2)NC(=O)[C@H](CC(C)C)NC(=O)[C@@H]2CCCN2C(=O)[C@@H](NC(=O)[C@H](CCCNC(=N)N)NC(=O)[C@H](CCCNC(=N)N)NC(=O)[C@H](CCCNC(=N)N)NC(=O)[C@H](CCCNC(=N)N)NC(C)=O)CSSC[C@@H](C(=O)N[C@@H](CCCNC(=N)N)C(=O)N[C@@H](CCCNC(=N)N)C(=O)N[C@@H](CCCNC(=N)N)C(=O)N[C@@H](CCCNC(=N)N)C(N)=O)NC(=O)[C@H](C(C)C)NC(=O)[C@@H]2CCCN2C(=O)[C@H](CC(=O)O)NC(=O)[C@H](Cc2ccc(O)cc2)NC(=O)[C@H](C)NC1=O (HELM PEPTIDE1{[ac].R.R.R.R.C.P.L.Y.I.A.Y.D.P.V.C.R.R.R.R.[am]}$PEPTIDE1,PEPTIDE1,6:R3-16:R3$$$V2.0)
GTPase KRas [1]
  IC50: 36 nM
Homo sapiens [2]
  Ratio IC50: 6
GTPase KRas [3]
  IC50: 22 nM
Homo sapiens [4]
  Ratio IC50: 121
GTPase KRas [5]
  IC50: 6.3 nM
GTPase KRas [6]
  IC50: 764 nM

## CC[C@H](C)[C@@H]1NC(=O)[C@H](Cc2ccc(O)cc2)NC(=O)[C@H](CC(C)C)NC(=O)[C@@H]2CCCN2C(=O)[C@@H](NC(=O)[C@H](CCCNC(=N)N)NC(=O)[C@H](CCCNC(=N)N)NC(=O)[C@H](CCCNC(=N)N)NC(=O)[C@H](CCCNC(=N)N)NC(C)=O)CSSC[C@@H](C(=O)N[C@@H](CCCNC(=N)N)C(=O)N[C@@H](CCCNC(=N)N)C(=O)N[C@@H](CCCNC(=N)N)C(=O)N[C@@H](CCCNC(=N)N)C(N)=O)NC(=O)[C@H](C(C)C)NC(=O)[C@H](C)NC(=O)[C@H](CC(=O)O)NC(=O)[C@H](Cc2ccc(O)cc2)NC(=O)[C@H](CO)NC1=O (HELM PEPTIDE1{[ac].R.R.R.R.C.P.L.Y.I.S.Y.D.A.V.C.R.R.R.R.[am]}$PEPTIDE1,PEPTIDE1,6:R3-16:R3$$$V2.0)
GTPase KRas [1]
  IC50: 12 nM
Homo sapiens [2]
  Ratio IC50: 4
GTPase KRas [3]
  IC50: 7.4 nM
Homo sapiens [4]
  Ratio IC50: 80
GTPase KRas [5]
  IC50: 2.7 nM
GTPase KRas [6]
  IC50: 216 nM

From ChEMBL document CHEMBL4020739, “Investigation of the structural requirements of K-Ras(G12D) selective inhibitory peptide KRpep-2d using alanine scans and cysteine bridging” (Bioorg Med Chem Lett, 2017)
